Measurements taken from patent US8013018B2, “Aminoindane derivative or salt thereof” (Astellas Pharma Inc., priority 2006, dated 2011).
Counter-ions that a name gives are not always drawn.

Molecular target: NMDA receptor
Test: [3H] MK-801 binding test on rat brain membrane specimen
Conditions: read-out: Ki (NMDA receptor affinity)
Method: 1) Preparation of Specimens of Rat Meninges:
The whole brain was taken out from 30 10-week SD rats (Nippon SLC), and the cerebellum was removed from them. A 0.32 M sucrose solution was added to the part containing the cerebrum, cut in a mixer, and homogenized with a Teflon™ (trademark) homogenizer. This was centrifuged at 2800 rpm and 4° C. for 15 minutes, and the resulting supernatant was again centrifuged at 15000 g and 4° C. for 20 minutes. The pellets were suspended in 50 mM Tris-HCL (pH 7.5) containing 0.08% Triton X-100, and kept statically on ice for 30 minutes, then centrifuged at 15000 g and 4° C. for 20 minutes. The pellets were suspended in 50 mM Tris-HCl (pH 7.5) added thereto, and centrifuged at 15000 g and 4° C. for 20 minutes. 50 mM Tris-HCl (pH 7.5) was again added to the pellets, and centrifuged in the same manner as before. The pellets were suspended in 20 ml of 50 mM Tris-HCl (pH 7.5) added thereto, and homogenized with the Teflon™ (trademark) homogenizer. The membrane specimen was divided into small tubes and stored in a deep freezer (−80° C.). Before use, this was washed twice with 5 mM Tris-HCl (pH 7.5) of five times that of the membrane specimen. Its concentration was controlled at 1 mg protein/ml with 5 mM Tris-HCl (pH 7.5) added to it, and this was used for assay.
2) [^3H] MK-801 Binding Assay:
50 μl of the rat membrane specimen (1 mg protein/ml) was added to a solution of a test compound dissolved in 1 μl of DMSO.

| Structure (SMILES) | Ki |
| --- | --- |
| CC1(C)Cc2ccc(Br)cc2C1(C)N (stereo not drawn) [Example 42, 6-Bromo-1,2,2,-trimethylindan-1-amine hydrochloride] | 300 nM |
| CCC1(N)c2cccc(C)c2CC1(C)C (stereo not drawn) [Example 59] | 900 nM |
| CCC1(CC)Cc2ccccc2C1(N)c1ccccc1 (stereo not drawn) [Example 2] | 400 nM |
| CCCCC1(N)c2ccccc2CC1(C)C (stereo not drawn) [Example 61] | 500 nM |
| CC1(C)Cc2ccc(C#N)cc2C1(C)N (stereo not drawn) [Example 44, 6-Cyano-1,2,2-trimethylindan-1-amine hydrochloride] | 600 nM |
| CC1(C)Cc2ccc(C(F)(F)F)cc2C1(C)N (stereo not drawn) [Example 43, 6-Trifluoromethyl-1,2,2-trimethylindan-1-amine hydrochloride] | 300 nM |
| CC1(C)Cc2ccccc2C1(N)c1ccc(F)cc1 (stereo not drawn) [Example 17, 1-(4-Fluorophenyl)-2,2-dimethylindan-1-amine monofumarate] | 800 nM |
| Cc1ccc2c(c1)C(C)(N)C(C)(C)C2 (stereo not drawn) [Example 36, 1,2,2,6-Tetramethylindan-1-amine hydrochloride] | 400 nM |
| CC1(C)Cc2ccc(F)cc2C1(C)N (stereo not drawn) [Example 41, 6-Fluoro-1,2,2-trimethylindan-1-amine hydrochloride] | 800 nM |
| COc1ccc2c(c1)C(C)(N)C(C)(C)C2 (stereo not drawn) [Example 38, 6-Methoxy-1,2,2-trimethylindan-1-amine hydrochloride] | 300 nM |
| CC1(C)Cc2cccc(F)c2C1(C)N (stereo not drawn) [Example 48, 7 Fluoro-1,2,2-trimethylindan-1-amine hydrochloride] | 600 nM |
| CNC1(c2ccccc2)c2ccccc2CC1(C)C (stereo not drawn) [Example 10, N,2,2-trimethyl-1-phenylindan-1-amine hydrochloride] | 400 nM |
| CC1(C)Cc2ccccc2C1(C)N (stereo not drawn) [Example 23, 1,2,2-Trimethylindan-1-amine hydrochloride] | 900 nM |
| COc1ccccc1C1(N)c2ccccc2CC1(C)C (stereo not drawn) [Example 18, 1-(2-Methoxyphenyl)-2,2-dimethylindan-1-amine hydrochloride] | 300 nM |
| CC1(C)Cc2ccccc2C1(N)c1cccc(O)c1 (stereo not drawn) [Example 21, 1-(3-Hydroxyphenyl)-2,2-dimethylindan-1-amine] | 100 nM |
